Source: patent publication US20260317307A1, “Process for the Preparation of Deucravacitinib, and Crystalline Forms Thereof” (Alivus Life Sciences Limited, priority 2023, published 2026)

Legend:
[1] = Stability of crystalline form A (polymorphic form identification by XRPD on storage); format: physicochemical; conditions: 1 Month, complies with Form A
From the text: Stability data of crystalline form A of deucravacitinib prepared by the present invention: […]

[2] = Particle size of crystalline form A (Example 38); format: physicochemical

- Polymorphic Form Identification: XRPD pattern should exhibit characteristic peaks of Form A at 10.1°, 12.4°, 18.9°, 19.3° and 20.4° ± 0.2° 2 theta ([1]; storage 25 °C/60% RH): Complies
- Polymorphic Form Identification: XRPD pattern should exhibit characteristic peaks of Form A at 10.1°, 12.4°, 18.9°, 19.3° and 20.4° ± 0.2° 2 theta ([1]; storage 40 °C/75% RH): Complies
- Polymorphic Form Identification: XRPD pattern should exhibit characteristic peaks of Form A at 10.1°, 12.4°, 18.9°, 19.3° and 20.4° ± 0.2° 2 theta ([1]; storage 60 °C/90% RH): Complies
- Particle Size D10 ([2]; After jet milling): 1.6 μm
- Particle Size D50 ([2]; After jet milling): 3.0 μm
- Particle Size D90 ([2]; After jet milling): 5.6 μm
- Particle Size D10 ([2]; before jet milling): 9.4 μm
- Particle Size D50 ([2]; before jet milling): 21.64 μm
- Particle Size D90 ([2]; before jet milling): 39.49 μm
Compound: [2H]C([2H])([2H])NC(=O)c1nnc(NC(=O)C2CC2)cc1Nc1cccc(-c2ncn(C)n2)c1OC [crystalline form A of deucravacitinib, 6-(cyclopropanecarboxamido)-4-((2-methoxy-3-(1-methyl-1H-1,2,4-triazol-3-yl)phenyl)amino)-N-(trideuteriomethyl)pyridazine-3-carboxamide]
